“And” between values parts separate entries of the source, which are not always exact repeats. Equal entries are not always repeated. Where two headings read alike, the source gives them in different places.
How the values were obtained:
[1] = assay type: binding; conditions: 1% DMSO
[2] = assay type: binding; conditions: for hemin binding indicated by decrease of fluorescence intensity as hemin is added: pH 7.4; for estimated number of hemin molecules bound to the respective peptide: 25° C.
[3] = tested on: brain edema after traumatic brain injury; conditions: in vivo, 8 mg/kg
[4] = tested on: cultured neurons and astrocytes; conditions: cited from earlier work

Substance	hemin binding indicated by SPR response increasing with hemin concentration [1]	hemin binding indicated by decrease of fluorescence intensity as hemin is added [2]	estimated number of hemin molecules bound to the respective peptide ([2]; pH = 5.0)	estimated number of hemin molecules bound to the respective peptide ([2]; pH = 7.4)	% water content of brain tissue from impacted region, individual rat [3]	% water content of brain tissue from impacted region, average ([3]; rat)	effect on brain swelling ([3]; rat)	hemin concentration sufficient to kill 60%-70% of cultured neurons and astrocytes [4]
GQPHGGGWGQPHGGGWGQPHGGGWGQPHGGGWGQGGG (Synthetically generated peptide) [SEQ ID NO: 6, 4-repeat peptide of the octarepeat region with additional flanking residues]	hemin binds to the respective peptide	hemin forms a chemical bond	4.0	2.0				
PHGGGWGQPHGGGWGQ [SEQ ID NO: 3]		hemin forms a chemical bond			80.93% and 77.24% and 80.98%	79.72%	reduced the brain swelling	
hemin								3 to 30 µM

Source: patent publication US8993514B1 (The Florida State University Research Foundation, Inc., priority 2011, dated 2015)
